Paper PMC5117898 (International Journal of Nanomedicine, 2016)

Columns and labels:
[1] = Dex loading and release study in simulated perilymph; assay type: physicochemical; conditions: dialysis loading, PCA 30 mg and Dex 6 mg in DMSO
[2] = test system: HEI-OC1 cells; assay: Cellular uptake test of CPPs; assay type: cell-based, mouse; conditions: rhodamine-labeled peptides 0.025 mg/mL, flow cytometry

| Substance | percentage of Dex loading [1] | fluorescence intensity fold higher compared with Penetratin [2] [fold] | fluorescence intensity fold higher compared with Tat [2] [fold] |
| --- | --- | --- | --- |
| PHEA-g-C18-Arg8 [PCA nanoparticles] | 16.8%±3.2 | – | – |
| RRRRRRRR [Arg8] | – | 18.8±3.2 | 16.1±1.3 |
